Results from patent US8481527B2, “Benzamide derivatives as bradykinin antagonists” (Richter Gedeon Nyrt., priority 2006, dated 2013).
Where a name gives a salt, the structure may show the parent alone. Read-outs that look alike come from different tables or passages of the source.

What was measured:
[1] = target: T1, recombinant human B1 receptors (Homo sapiens, UniProt P46663); test: Functional assay: antagonist potency by cytosolic calcium measurement in CHO-B1 cells (agonist LysDABK); type: cell-based
T1 construct: host or cells: CHO (CHO-B1)
T1 sequence (P46663 1-353): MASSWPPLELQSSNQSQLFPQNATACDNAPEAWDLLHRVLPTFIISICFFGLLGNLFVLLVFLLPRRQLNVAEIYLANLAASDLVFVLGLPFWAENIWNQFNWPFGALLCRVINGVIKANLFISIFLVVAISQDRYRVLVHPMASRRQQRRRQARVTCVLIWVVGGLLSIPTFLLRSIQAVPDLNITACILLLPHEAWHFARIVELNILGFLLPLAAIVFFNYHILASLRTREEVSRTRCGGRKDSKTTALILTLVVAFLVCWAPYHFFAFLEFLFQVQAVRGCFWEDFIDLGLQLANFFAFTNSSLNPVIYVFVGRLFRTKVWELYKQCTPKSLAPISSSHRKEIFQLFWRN
Experimental: Assessment of Antagonist Potency at B1 and B2 Receptors In Vitro by Measurement of Cytosolic Calcium Ion Concentration with a Plate Reader Fluorimeter in Cells Expressing Recombinant Human B1 or B2 Receptors
Chinese hamster ovary (CHO) cells stably expressing recombinant human B1 (CHO-B1, Euroscreen) or B2 (CHO-B2, Perkin-Elmer) receptors were cultured in Dulbecco's Modified Eagle's Medium (DMEM) containing 10% Fetal Calf Serum (FCS), 100 U/ml penicillin, 0.1 mg/ml streptomycin, 0.25 μg/ml amphotericin B, 1% Minimum Essential Medium Eagle (MEM), non essential amino acid solution, 600 μg/ml G418, 1% pyruvate (for the B2 cell line). Cells were kept at 37° C. in a humidified incubator in an atmosphere of 5% CO2/95% air and were passaged 1:4 three times a week. Cells were plated at 1.5-2.5×10^4 cell/well on standard 96-well microplates, measurements of cytosolic calcium ion concentration ([Ca^2+]i) were carried out 1-2 days after cell plating.
Measurements of [Ca^2+]i were carried out on CHO-B1 and CHO-B2 cells stably expressing human B1 and B2 receptors, respectively. Cells were grown in standard 96-well microplates and before the measurement were loaded with a fluorescent Ca^2+-sensitive dye, fluo-4/AM (2 μM): after removing the culture medium the dye was added to the cells (dissolved in assay buffer: 145 mM NaCl, 5 mM KCl, 2 mM MgCl2, 2 mM CaCl2, 10 mM HEPES, 20 mM D-glucose, 2 mM probenecid, 100 μl/well) and cells were incubated at 37° C. in a humidified incubator in an atmosphere of 5% CO2/95% air for 40-120 min. To stop dye loading cells were washed twice with assay buffer. After washing, various concentrations of the test compounds (diluted in extracellular medium from a DMSO stock solution, final DMSO concentration was <0.1%) or buffer were added to each well depending on the experimental setup. After incubation at 37° C. for 20-25 min. baseline and agonist-evoked changes of [Ca^2+]i were measured column by column with a plate reader fluorimeter (Fluoroskan Ascent, Labsystems). Excitation and detection of emission was carried out from the bottom of the plate. Filters used for Fluo-4: excitation filter—485 nm, emission filter—538 nm. The whole measurement process was performed at 37° C. and was controlled by custom software. Inhibitory potency of the test compounds was assessed by measuring the reduction in the agonist-evoked [Ca^2+]i-elevation in the presence of different concentrations of the compounds. The agonists were LysDABK for CHO-B1, and bradykinin for CHO-B2 cells. Agonists were applied at an EC80 concentration, the EC80-values were derived from daily determined dose-response curves. Fluorescence data were expressed as ΔF/F (fluorescence change normalized to baseline). All treatments on a single plate were measured in multiple wells. Data from all wells with the same treatment were averaged and the average values were used for analysis. Inhibitory potency of a compound at a single concentration point was expressed as percent inhibition of the control agonist response. Sigmoidal concentration-inhibition curves were fitted to the data (derived from at least three independent experiments) and IC50-values were determined as the concentration that produces half of the maximal inhibition caused by the compound.

[2] = target: T2, human recombinant bradykinin B1 receptor (Homo sapiens, UniProt P46663); test: Human recombinant bradykinin B1 receptor binding
T2 construct: purchased Euroscreen ES-091; host or cells: CHO cells
T2 sequence (P46663 1-353): T1 sequence (P46663 1-353)
Experimental: Receptor Binding Assays 1. Human Recombinant Bradykinin B1 Receptor Binding
Binding assays were carried out on human recombinant bradykinin) receptors (expressed in CHO cells) according to the Euroscreen Technical Data Sheet (Cat.No.:ES-091). 20 μg protein/tube was incubated with [3,4-prolyl-3,4-^3H(N)]-[Des-Arg^10] Kallidin as radioligand. Non specific binding was determined in the presence of 10 μM Lys-des-Arg^9-Bradykinin. The final incubation volume was 250 μl. Samples were incubated for 15 min. at 25° C. then were rapidly vacuum filtered through GF/B filters presoaked for at least 1 h in 0.5% PEI. Radioactivity was determined by liquid scintillation spectroscopy.

[3] = CHO-B1 cells, LysDABK at EC80, fluo-4 [Ca2+]i, read-out: B1 func.
[4] = CHO cell membranes, [3H]-[Des-Arg10] Kallidin radioligand, read-out: B1 binding

| IC50 [1, 3] [nM] | Ki [2, 4] [nM] | Structure (SMILES) | IC50 ([1]; reference compounds, functional test, read-out: IC50) [nM] | Ki ([2]; reference compounds, binding test, read-out: Ki) [nM] |
| --- | --- | --- | --- | --- |
| < 20 | < 20 | O=C(NCC(=O)N1CCC(O)CC1)c1ccc(S(=O)(=O)Nc2ccccc2Oc2ccc(Cl)cc2Cl)cc1 [Example 1.22, 4-[2-(2,4-Dichloro-phenoxy)-phenylsulfamoyl]-N-[2-(4-hydroxy-piperidin-1-yl)-2-oxo-ethyl]-benzamide] |  |  |
| < 20 | < 20 | O=C(NCC(=O)N1CCN(CCCN2CCOCC2)CC1)c1ccc(S(=O)(=O)Nc2ccccc2Oc2ccc(Cl)cc2Cl)cc1 [Example 1.12, 4-[2-(2,4-Dichloro-phenoxy)-phenylsulfamoyl]-N-{2-[4-(3-morpholin-4-yl-propyl)-piperazin-1-yl]-2-oxo-ethyl}-benzamide] |  |  |
| < 20 | < 20 | O=C(NCC(=O)N1CCN(CCCN2CCCC2)CC1)c1ccc(S(=O)(=O)Nc2ccccc2Oc2ccc(Cl)cc2Cl)cc1 [Example 1.4, 4-[2-(2,4-Dichloro-phenoxy)-phenylsulfamoyl]-N-{2-oxo-2-[4-(3-pyrrolidin-1-yl-propyl)-piperazin-1-yl]-ethyl}-benzamide] |  |  |
| < 20 | < 20 | O=C(NCC(=O)N1CCN(CCCN2CCCC2)CC1)c1ccc(S(=O)(=O)Nc2ccccc2Oc2ccccc2)cc1 [Example 2.5, N-{2-Oxo-2-[4-(3-pyrrolidin-1-yl-propyl)-piperazin-1-yl]-ethyl}-4-(2-phenoxy-phenylsulfamoyl)-benzamide] |  |  |
| < 20 | < 20 | O=C(NCC(=O)N1CCN(CCCN2CCCC2)CC1)c1ccc(S(=O)(=O)Nc2ccccc2C(=O)c2ccccc2)cc1 [Example 3.13, 4-(2-Benzoyl-phenylsulfamoyl)-N-{2-oxo-2-[4-(3-pyrrolidin-1-yl-propyl)-piperazin-1-yl]-ethyl}-benzamide] |  |  |
| < 20 | < 20 | O=C(NCC(=O)N1CCCNCC1)c1ccc(S(=O)(=O)Nc2ccccc2Oc2ccc(Cl)cc2Cl)cc1 [Example 11.5, N-(2-[1,4]Diazepan-1-yl-2-oxo-ethyl)-4-[2-(2,4-dichloro-phenoxy)-phenylsulfamoyl]-benzamide hydrochloride] |  |  |
| < 20 | < 20 | CN(C)CCCN1CCN(C(=O)CNC(=O)c2ccc(S(=O)(=O)Nc3ccccc3Oc3ccc(Cl)cc3Cl)cc2)CC1 [Example 1.10, 4-[2-(2,4-Dichloro-phenoxy)-phenylsulfamoyl]-N-{2-[4-(3-dimethylamino-propyl)-piperazin-1-yl]-2-oxo-ethyl}-benzamide] |  |  |
| < 20 | < 20 | O=C(NCC(=O)N1CCN(c2ncccn2)CC1)c1ccc(S(=O)(=O)Nc2ccccc2Oc2ccc(Cl)cc2Cl)cc1 [Example 1.7, 4-[2-(2,4-Dichloro-phenoxy)-phenylsulfamoyl]-N-[2-oxo-2-(4-pyrimidin-2-yl-piperazin-1-yl)-ethyl]-benzamide] |  |  |
| < 20 | < 20 | O=C(NCC(=O)N1CCC(N2CCCC2)CC1)c1ccc(S(=O)(=O)Nc2ccccc2Oc2ccc(Cl)cc2Cl)cc1 [Example 1.21, 4-[2-(2,4-Dichloro-phenoxy)-phenylsulfamoyl]-N-[2-oxo-2-(4-pyrrolidin-1-yl-piperidin-1-yl)-ethyl]-benzamide] |  |  |

Further lines, the compound ahead of its results:

| Structure (SMILES) | IC50 [1, 3] [nM] | Ki [2, 4] [nM] | IC50 ([1]; reference compounds, functional test, read-out: IC50) [nM] | Ki ([2]; reference compounds, binding test, read-out: Ki) [nM] |
| --- | --- | --- | --- | --- |
| N#CC1CCN(C(=O)CNC(=O)c2ccc(S(=O)(=O)Nc3ccccc3C(=O)c3ccccc3)cc2)CC1 [Example 3.5, 4-(2-Benzoyl-phenylsulfamoyl)-N-[2-(4-cyano-piperidin-1-yl)-2-oxo-ethyl]-benzamide] | < 20 | < 20 |  |  |
| O=C(NCC(=O)N1CCCNCC1)c1ccc(S(=O)(=O)Nc2ccccc2Oc2ccccc2)cc1 [Example 11.1, N-(2-[1,4]-Diazepan-1-yl-2-oxo-ethyl)-4-(2-phenoxy-phenylsulfamoyl)-benzamide hydrochloride] | < 20 | 20 to 100 |  |  |
| O=C(NCC(=O)N1CCC(CCN2CCCC2)CC1)c1ccc(S(=O)(=O)Nc2ccccc2C(=O)c2ccccc2)cc1 [Example 3.15, 4-(2-Benzoyl-phenylsulfamoyl)-N-{2-oxo-2-[4-(2-pyrrolidin-1-yl-ethyl)-piperidin-1-yl]-ethyl}-benzamide] | < 20 | < 20 |  |  |
| O=C(NCC(=O)N1CCCCC1)c1ccc(S(=O)(=O)Nc2ccccc2C(=O)c2ccccc2)cc1 [Example 3.3, 4-(2-Benzoyl-phenylsulfamoyl)-N-(2-oxo-2-piperidin-1-yl-ethyl)-benzamide] | < 20 | < 20 |  |  |
| O=C(NCC(=O)N1CCC(CCO)CC1)c1ccc(S(=O)(=O)Nc2ccccc2C(=O)c2ccccc2)cc1 [Example 3.10, 4-(2-Benzoyl-phenylsulfamoyl)-N-{2-[4-(2-hydroxy-ethyl)-piperidin-1-yl]-2-oxo-ethyl}-benzamide] | < 20 | < 20 |  |  |
| CCCN1C(=O)[C@H](NC(=O)Nc2ccc(N3CCC(N4CCCCC4)CC3)cc2)N=C(c2ccc(C)cc2)c2ccccc21 [compound 3, N-[4-(,4′-bipiperidin)-1′-ylphenyl]-N′-[(3R)-2,3-dihydro-5-(4-methyl-phenyl)-2-oxo-1-propyl-1H-1,4-benzodiazepin-3-yl]-urea, reference compound] |  |  | 64.5 | 13.4 |
| NC(=O)C1CCN(C(=O)CNC(=O)c2ccc(S(=O)(=O)Nc3ccccc3C(=O)c3ccccc3)cc2)CC1 [Example 3.17, 1-{2-[4-(2-Benzoyl-phenylsulfamoyl)-benzoylamino]-acetyl}-piperidine-4-carboxylic acid amide] | < 20 | < 20 |  |  |
| O=C(NCC(=O)N1CCCNCC1)c1ccc(S(=O)(=O)Nc2ccccc2C(=O)c2ccccc2)cc1 [Example 11.6, 4-(2-Benzoyl-phenylsulfamoyl)-N-(2-[1,4]diazepan-1-yl-2-oxo-ethyl)-benzamide hydrochloride] | < 20 | < 20 |  |  |
| O=C(NCC(=O)N1CCC(O)CC1)c1ccc(S(=O)(=O)Nc2ccccc2C(=O)c2ccccc2)cc1 [Example 3.16, 4-(2-Benzoyl-phenylsulfamoyl)-N-[2-(4-hydroxy-piperidin-1-yl)-2-oxo-ethyl]-benzamide] | < 20 | < 20 |  |  |
| NC1CCN(C(=O)CNC(=O)c2ccc(S(=O)(=O)Nc3ccccc3Oc3ccccc3)cc2)CC1 [Example 11.3, N-[2-(4-Amino-piperidin-1-yl)-2-oxo-ethyl]-4-(2-phenoxy-phenylsulfamoyl)-benzamide hydrochloride] | < 20 | < 20 |  |  |
| O=C(NCC(=O)N1CCNCC1)c1ccc(S(=O)(=O)Nc2ccccc2C(=O)c2ccccc2)cc1 [Example 11.7, 4-(2-Benzoyl-phenylsulfamoyl)-N-(2-oxo-2-piperazin-1-yl-ethyl)-benzamide hydrochloride] | < 20 | < 20 |  |  |
